The target of this assay is T1, human FPTase (Homo sapiens, UniProt P49354+P49356).
T1 construct: made in house
As to the kind of experiment: In vitro inhibition of ras farnesyl transferase (human FPTase assay). In kind it is biochemical. The settings on record: [3H]-FPP incorporation, 100 nM Ras-CVIM substrate, 30 min; read-out: IC50, inhibitory activity against human FPTase.

Structures can show the parent of a compound that is named as a salt. Some results are limits rather than exact numbers.

Usually IC50 stands for the concentration needed to halve the response being measured.

In the case of `N#Cc1ccc(Cn2cncc2COC(=O)Nc2cccc(Cl)c2)cc1` [Example 1, N-(3-chlorophenyl)-O-[1-(4-cyanobenzyl)-5-imidazolylmethyl]-carbamate hydrochloride], the IC50 is < 30 µM.
For `CCCCCN(C(=O)OCc1cncn1Cc1ccc(C#N)cc1)c1cccc(Cl)c1` [Example 2, N-(3-chlorophenyl)-N-(n-pentyl)-O-[1-(4-cyanobenzyl)-5-imidazolylmethyl]carbamate hydrochloride], the IC50 was < 30 µM.

(Values after patent US5914341A, “Inhibitors of farnesyl-protein transferase” (Merck & Co., Inc., priority 1998, dated 1999).)
